Assay results reported in ChEMBL document CHEMBL3621178, “Antidiabetic effect of novel benzenesulfonylureas as PPAR-γ agonists and their anticancer effect” (Bioorg Med Chem Lett, 2015).
Active and inactive are the calls of the source. The calls are words filed in the database; no cut-off is given here.

How the values were obtained:
NCI-H460 = assay: Growth inhibition of human NCI-H460 cells assessed as cell viability at 10 uM incubated for 48 hrs by sulforhodamine B assay; format: functional; settings: NCI-H460, 48 h, read-out: Activity
M14 = assay: Growth inhibition of human M14 cells assessed as cell viability at 10 uM incubated for 48 hrs by sulforhodamine B assay; format: functional; settings: M14, 48 h, read-out: Activity
Rattus norvegicus = assay: Antidiabetic activity in Wistar rat assessed as reduction in blood glucose level at 30 mg/kg, po dosed 30 mins before glucose challenge and measured 30 and 60 mins post glucose challenge by OGTT method; format: functional, organism-based
SF-268 = assay: Growth inhibition of human SF268 cells assessed as cell viability at 10 uM incubated for 48 hrs by sulforhodamine B assay; format: functional; settings: SF-268, 48 h, read-out: Activity
[1] = Growth inhibition of human SF539 cells assessed as cell viability at 10 uM incubated for 48 hrs by sulforhodamine B assay; format: functional; settings: SF-539, 48 h, read-out: Activity
NCI-H322M = assay: Growth inhibition of human NCI-H322M cells assessed as cell viability at 10 uM incubated for 48 hrs by sulforhodamine B assay; format: functional; settings: read-out: Activity
SW-620 = assay: Growth inhibition of human SW620 cells assessed as cell viability at 10 uM incubated for 48 hrs by sulforhodamine B assay; format: functional; settings: SW-620, 48 h, read-out: Activity
SNB-19 = assay: Growth inhibition of human SNB19 cells assessed as cell viability at 10 uM incubated for 48 hrs by sulforhodamine B assay; format: functional; settings: SNB-19, 48 h, read-out: Activity
UACC-257 = assay: Growth inhibition of human UACC257 cells assessed as cell viability at 10 uM incubated for 48 hrs by sulforhodamine B assay; format: functional; settings: UACC-257, 48 h, read-out: Activity
[2] = Growth inhibition of human COLO205 cells assessed as cell viability at 10 uM incubated for 48 hrs by sulforhodamine B assay; format: functional; settings: COLO 205, 48 h, read-out: Activity
SN12C = assay: Growth inhibition of human SN12C cells assessed as cell viability at 10 uM incubated for 48 hrs by sulforhodamine B assay; format: functional; settings: read-out: Activity
HCT-116 = assay: Growth inhibition of human HCT116 cells assessed as cell viability at 10 uM incubated for 48 hrs by sulforhodamine B assay; format: functional; settings: HCT-116, 48 h, read-out: Activity
UACC-62 = assay: Growth inhibition of human UACC62 cells assessed as cell viability at 10 uM incubated for 48 hrs by sulforhodamine B assay; format: functional; settings: UACC-62, 48 h, read-out: Activity
PC-3 = assay: Growth inhibition of human PC3 cells assessed as cell viability at 10 uM incubated for 48 hrs by sulforhodamine B assay; format: functional; settings: PC-3, 48 h, read-out: Activity
ACHN = assay: Growth inhibition of human ACHN cells assessed as cell viability at 10 uM incubated for 48 hrs by sulforhodamine B assay; format: functional; settings: read-out: Activity
A498 = assay: Growth inhibition of human A498 cells assessed as cell viability at 10 uM incubated for 48 hrs by sulforhodamine B assay; format: functional; settings: A498, 48 h, read-out: Activity
UO-31 = assay: Growth inhibition of human UO31 cells assessed as cell viability at 10 uM incubated for 48 hrs by sulforhodamine B assay; format: functional; settings: UO-31, 48 h, read-out: Activity
CAKI-1 = assay: Growth inhibition of human CAKI-1 cells assessed as cell viability at 10 uM incubated for 48 hrs by sulforhodamine B assay; format: functional; settings: CAKI-1, 48 h, read-out: Activity
HCT-15 = assay: Growth inhibition of human HCT15 cells assessed as cell viability at 10 uM incubated for 48 hrs by sulforhodamine B assay; format: functional; settings: HCT-15, 48 h, read-out: Activity
MCF7 = assay: Growth inhibition of human MCF7 cells assessed as cell viability at 10 uM incubated for 48 hrs by sulforhodamine B assay; format: functional; settings: MCF7, 48 h, read-out: Activity
DU-145 = assay: Growth inhibition of human DU145 cells assessed as cell viability at 10 uM incubated for 48 hrs by sulforhodamine B assay; format: functional; settings: DU-145, 48 h, read-out: Activity
NCI-H226 = assay: Growth inhibition of human NCI-H226 cells assessed as cell viability at 10 uM incubated for 48 hrs by sulforhodamine B assay; format: functional; settings: NCI-H226, 48 h, read-out: Activity
SNB-75 = assay: Growth inhibition of human SNB75 cells assessed as cell viability at 10 uM incubated for 48 hrs by sulforhodamine B assay; format: functional; settings: SNB-75, 48 h, read-out: Activity
SR = assay: Growth inhibition of human SR cells assessed as cell viability at 10 uM incubated for 48 hrs by sulforhodamine B assay; format: functional; settings: read-out: Activity
KM12 = assay: Growth inhibition of human KM12 cells assessed as cell viability at 10 uM incubated for 48 hrs by sulforhodamine B assay; format: functional; settings: KM12, 48 h, read-out: Activity
[3] = Growth inhibition of human SF295 cells assessed as cell viability at 10 uM incubated for 48 hrs by sulforhodamine B assay; format: functional; settings: SF-295, 48 h, read-out: Activity
[4] = Growth inhibition of human LOXIMVI cells assessed as cell viability at 10 uM incubated for 48 hrs by sulforhodamine B assay; format: functional; settings: LOX IMVI, read-out: Activity
[5] = Growth inhibition of human NCI-ADR-RES cells assessed as cell viability at 10 uM incubated for 48 hrs by sulforhodamine B assay; format: functional; settings: read-out: Activity
[6] = Growth inhibition of human Hs 578T cells assessed as cell viability at 10 uM incubated for 48 hrs by sulforhodamine B assay; format: functional; settings: read-out: Activity
HOP-62 = assay: Growth inhibition of human HOP62 cells assessed as cell viability at 10 uM incubated for 48 hrs by sulforhodamine B assay; format: functional; settings: HOP-62, 48 h, read-out: Activity
OVCAR-5 = assay: Growth inhibition of human OVCAR5 cells assessed as cell viability at 10 uM incubated for 48 hrs by sulforhodamine B assay; format: functional; settings: OVCAR-5, 48 h, read-out: Activity
[7] = Growth inhibition of human HCC2998 cells assessed as cell viability at 10 uM incubated for 48 hrs by sulforhodamine B assay; format: functional; settings: HCC 2998, 48 h, read-out: Activity
MDA-MB-435 = assay: Growth inhibition of human MDA-MB-435 cells assessed as cell viability at 10 uM incubated for 48 hrs by sulforhodamine B assay; format: functional; settings: MDA-MB-435, 48 h, read-out: Activity
NCI-H23 = assay: Growth inhibition of human NCI-H23 cells assessed as cell viability at 10 uM incubated for 48 hrs by sulforhodamine B assay; format: functional; settings: NCI-H23, 48 h, read-out: Activity
786-0 = assay: Growth inhibition of human 786-0 cells assessed as cell viability at 10 uM incubated for 48 hrs by sulforhodamine B assay; format: functional; settings: 786-0, 48 h, read-out: Activity
SK-MEL-5 = assay: Growth inhibition of human SK-MEL-5 cells assessed as cell viability at 10 uM incubated for 48 hrs by sulforhodamine B assay; format: functional; settings: SK-MEL-5, 48 h, read-out: Activity

SMILES | viability at 10 µM (NCI-H460) [%] | viability at 10 µM (M14) [%] | Activity (Rattus norvegicus) | viability at 10 µM (SF-268) [%] | viability at 10 µM [1] [%] | viability at 10 µM (NCI-H322M) [%] | viability at 10 µM (SW-620) [%] | viability at 10 µM (SNB-19) [%] | viability at 10 µM (UACC-257) [%] | viability at 10 µM [2] [%] | viability at 10 µM (SN12C) [%] | viability at 10 µM (HCT-116) [%] | viability at 10 µM (UACC-62) [%] | viability at 10 µM (PC-3) [%] | viability at 10 µM (ACHN) [%] | viability at 10 µM (A498) [%] | viability at 10 µM (UO-31) [%] | viability at 10 µM (CAKI-1) [%] | viability at 10 µM (HCT-15) [%] | viability at 10 µM (MCF7) [%] | other results
COc1ccc(C2CC(c3cc4ccccc4oc3=O)=NN2c2ccc(S(=O)(=O)NC(=O)Nc3ccccc3C)cc2)cc1 (configuration not stated) | 99.8 | 91.8 | Active | 101 | 85.8 | 87.1 | 97.1 | 102 | 113 | 119 | 99.2 | 82.6 | 89.2 | 81 | 89.7 | 94.7 | 68.9 | 83.8 | 95.8 | 91.1 | viability at 10 µM (DU-145): 111%; viability at 10 µM (NCI-H226): 85.4%; viability at 10 µM (SNB-75): 78.3%; viability at 10 µM (SR): 80.4%; viability at 10 µM (KM12): 102%; viability at 10 µM [3]: 93.8%; viability at 10 µM [4]: 92.6%; viability at 10 µM [5]: 98.1%; viability at 10 µM [6]: 84.8%; viability at 10 µM (HOP-62): 87.3%; viability at 10 µM (OVCAR-5): 83.1%; viability at 10 µM [7]: 107%; viability at 10 µM (MDA-MB-435): 102%; viability at 10 µM (NCI-H23): 87.7%; viability at 10 µM (786-0): 94.2%; viability at 10 µM (SK-MEL-5): 97.2%
COc1ccc(C2CC(c3ccco3)=NN2c2ccc(S(=O)(=O)NC(=O)NCc3ccccc3)cc2)cc1 (configuration not stated) | 106 | 102 | Active | 103 | 90 | 97.5 | 104 | 108 | 97.9 | 123 | 106 | 93.9 | 105 | 92.4 | 101 | 96.2 | 99.4 | 97.7 | 101 | 94.7 | viability at 10 µM (DU-145): 108%; viability at 10 µM (NCI-H226): 97.1%; viability at 10 µM (SNB-75): 97.8%; viability at 10 µM (SR): 107%; viability at 10 µM (KM12): 105%; viability at 10 µM [3]: 95.9%; viability at 10 µM [4]: 102%; viability at 10 µM [5]: 104%; viability at 10 µM [6]: 105%; viability at 10 µM (HOP-62): 103%; viability at 10 µM (OVCAR-5): 102%; viability at 10 µM [7]: 109%; viability at 10 µM (MDA-MB-435): 103%; viability at 10 µM (NCI-H23): 108%; viability at 10 µM (786-0): 98.6%; viability at 10 µM (SK-MEL-5): 102%
